Data from patent US20260158009A1 (GENZYME CORPORATION, priority 2023, published 2026).

Columns and labels:
[1] = tested on: U937 cells; assay: Cellular assay in U937 cells: activity of RIPK1 inhibitors on TNFα/zVAD.fmk-induced cell death (necroptosis), CellTiter 96 AQueous (MTS) readout; assay type: cell-based; settings: Homo sapiens, U-937
In short: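 Necroptosis was measured by viable-cell MTS reduction (4 h, absorbance 490 nm) after overnight (18–24 h) 37° C culture. Cell suspensions of U937 cells carried TNFα (100 ng/ml) plus zVAD.fmk (50 μM) before compound was added. A 10-point curve (10 μM–0.26 nM or 1 μM–0.07 nM) was run in duplicate, normalised to the control lacking TNFα/zVAD.fmk.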

[2] = molecular target: T1, hRIPK1 (aa 1-375) fusion protein (Homo sapiens, UniProt Q13546); assay: ADP-Glo kinase assay: catalytic activity of RIPK1 (autophosphorylation, conversion of ATP to ADP); assay type: biochemical
T1 construct: hRIPK1 (aa 1-375) fusion protein
T1 sequence (Q13546 1-375): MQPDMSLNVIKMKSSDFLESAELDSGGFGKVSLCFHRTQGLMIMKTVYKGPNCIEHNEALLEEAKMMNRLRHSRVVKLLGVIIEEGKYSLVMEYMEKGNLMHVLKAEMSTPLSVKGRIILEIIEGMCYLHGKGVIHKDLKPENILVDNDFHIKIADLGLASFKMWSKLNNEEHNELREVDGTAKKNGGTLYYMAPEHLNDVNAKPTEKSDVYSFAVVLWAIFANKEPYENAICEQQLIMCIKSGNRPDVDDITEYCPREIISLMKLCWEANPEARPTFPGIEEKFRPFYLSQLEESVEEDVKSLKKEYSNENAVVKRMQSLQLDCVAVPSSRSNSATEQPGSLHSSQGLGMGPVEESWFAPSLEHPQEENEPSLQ
In short: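 hRIPK1 (aa 1-375) fusion protein (3.6 μg/ml final) was preincubated 30 min at rt with compound (33300-1.69 nM, 1% DMSO), then 50 μM ATP was added for 240 min at rt. ADP from autophosphorylation was measured by ADP-Glo luminescence and curves fitted by nonlinear regression.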

Structure (SMILES)	IC50 [2] [nM]	IC50 [1] [nM]
COc1ccc2c(ccn2C[C@H]2CC[C@H](C(=O)N3OCC[C@H]3c3cc(F)cc(C#N)c3)CC2)n1 [compound 120, trans-3-fluoro-5-[(3S)-2-[4-[(5-methoxypyrrolo[3,2-b]pyridin-1-yl)methyl]cyclohexanecarbonyl]isoxazolidin-3-yl]benzonitrile]	41	6
N#Cc1cncc([C@@H]2CCON2C(=O)[C@H]2CC[C@H](Cn3ccc4ncc(F)cc43)CC2)c1 [compound 123, trans-5-((S)-2-(4-((6-fluoro-1H-pyrrolo[3,2-b]pyridin-1-yl)methyl)cyclohexane-1-carbonyl)isoxazolidin-3-yl)nicotinonitrile]	46	12
Cc1cc(C)n(-c2cc(C[C@H]3CC[C@H](C(=O)N4OCC[C@H]4c4cc(F)cc(C#N)c4)CC3)ncn2)n1 [compound 124, trans-3-[(3S)-2-[4-[[6-(3,5-dimethylpyrazol-1-yl)pyrimidin-4-yl]methyl]cyclohexanecarbonyl]isoxazolidin-3-yl]-5-fluoro-benzonitrile]	26	68
Cc1cc(C)n(-c2cc(C[C@H]3CC[C@H](C(=O)N4OCC[C@H]4c4cc(F)cc(F)c4)CC3)ncn2)n1 [compound 125, trans-[(3S)-3-(3,5-difluorophenyl)isoxazolidin-2-yl]-[4-[[6-(3,5-dimethylpyrazol-1-yl)pyrimidin-4-yl]methyl]cyclohexyl]methanone]	9	16
COc1cnc2ccn(C[C@H]3CC[C@H](C(=O)N4OCC[C@H]4c4cc(F)cc(C#N)c4)CC3)c2c1 [compound 128, trans-3-fluoro-5-[(3S)-2-[4-[(6-methoxypyrrolo[3,2-b]pyridin-1-yl)methyl]cyclohexanecarbonyl]isoxazolidin-3-yl]benzonitrile]	22	4
N#Cc1cc(F)cc([C@@H]2CCON2C(=O)[C@H]2CC[C@H](Cn3ccc4ncc(O)cc43)CC2)c1 [compound 129, trans-3-fluoro-5-[(3S)-2-[4-[(6-hydroxypyrrolo[3,2-b]pyridin-1-yl)methyl]cyclohexanecarbonyl]isoxazolidin-3-yl]benzonitrile]	29	7
Cc1ccc([C@@H]2CCON2C(=O)[C@H]2CC[C@H](Cc3ccc(C)c(C(N)=O)c3)CC2)cc1 [compound 131, trans-2-methyl-5-[[4-[(3S)-3-(p-tolyl)isoxazolidine-2-carbonyl]cyclohexyl]methyl]benzamide]	15	5
Cc1ccc(C[C@H]2CC[C@H](C(=O)N3OCC[C@H]3c3cc(F)cc(F)c3)CC2)cc1C(N)=O [compound 132, trans-5-[[4-[(3S)-3-(3,5-difluorophenyl)isoxazolidine-2-carbonyl]cyclohexyl]methyl]-2-methyl-benzamide]	13	4
Cc1ccc(C[C@H]2CC[C@H](C(=O)N3OCC[C@H]3c3cc(F)cc(C#N)c3)CC2)cc1C(N)=O [compound 133, trans-5-[[4-[(3S)-3-(3-cyano-5-fluoro-phenyl)isoxazolidine-2-carbonyl]cyclohexyl]methyl]-2-methyl-benzamide]	8	8
Cc1ccc([C@@H]2CCON2C(=O)[C@H]2CC[C@H](Cc3cc(-n4ccnc4C)ncn3)CC2)cc1 [compound 136, trans-[4-[[6-(2-methylimidazol-1-yl)pyrimidin-4-yl]methyl]cyclohexyl]-[(3S)-3-(p-tolyl)isoxazolidin-2-yl]methanone]	26	26
Cc1ccc(C[C@H]2CC[C@H](C(=O)N3OCC[C@H]3c3cnccn3)CC2)cc1C(N)=O [compound 138, trans-2-methyl-5-[[4-[(3S)-3-pyrazin-2-ylisoxazolidine-2-carbonyl]cyclohexyl]methyl]benzamide]	18	25
Cc1ccc(C[C@H]2CC[C@H](C(=O)N3OCC[C@H]3c3cnccn3)CC2)cc1C#N [compound 139, trans-2-methyl-5-[[4-[(3S)-3-pyrazin-2-ylisoxazolidine-2-carbonyl]cyclohexyl]methyl]benzonitrile]	10	2
N#Cc1cncc(C[C@H]2CC[C@H](C(=O)N3OCC[C@H]3c3cnccn3)CC2)c1 [compound 140, trans-5-[[4-[(3S)-3-pyrazin-2-ylisoxazolidine-2-carbonyl]cyclohexyl]methyl]pyridine-3-carbonitrile]	40	173

Now from value to compound, other results behind:

IC50 [2] [nM]	Structure (SMILES)	IC50 [1] [nM]
27	Cc1cc(C)n(C[C@H]2CC[C@H](C(=O)N3OCC[C@H]3c3cc(F)cc(C#N)c3)CC2)n1 [compound 119, trans-3-((S)-2-(4-((3,5-dimethyl-1H-pyrazol-1-yl)methyl)cyclohexane-1-carbonyl)isoxazolidin-3-yl)-5-fluorobenzonitrile]	54
125	N#Cc1cncc([C@@H]2CCON2C(=O)[C@H]2CC[C@H](Cn3cc(C#N)ccc3=O)CC2)c1 [compound 122, trans-1-[[4-[(3S)-3-(5-cyano-3-pyridyl)isoxazolidine-2-carbonyl]cyclohexyl]methyl]-6-oxo-pyridine-3-carbonitrile]	797
37	N#Cc1cncc([C@@H]2CCON2C(=O)[C@H]2CC[C@H](Cn3ncc4cc(F)ccc43)CC2)c1 [compound 126, trans-5-((S)-2-(4-((5-fluoro-1H-indazol-1-yl)methyl)cyclohexane-1-carbonyl)isoxazolidin-3-yl)nicotinonitrile]	29
29	N#Cc1cncc([C@@H]2CCON2C(=O)[C@H]2CC[C@H](Cn3cc4ccc(C#N)cc4n3)CC2)c1 [compound 127, trans-2-((4-((S)-3-(5-cyanopyridin-3-yl)isoxazolidine-2-carbonyl)cyclohexyl)methyl)-2H-indazole-6-carbonitrile]	15
11	N#Cc1cncc([C@@H]2CCON2C(=O)[C@H]2CC[C@H](Cn3ccc4c(F)cc(C#N)cc43)CC2)c1 [compound 130, trans-1-((4-((S)-3-(5-cyanopyridin-3-yl)isoxazolidine-2-carbonyl)cyclohexyl)methyl)-4-fluoro-1H-indole-6-carbonitrile]	2
27	N#Cc1cnc2ccn(C[C@H]3CC[C@H](C(=O)N4OCC[C@H]4c4cnccn4)CC3)c2c1 [compound 134, trans-1-[[4-[(3S)-3-pyrazin-2-ylisoxazolidine-2-carbonyl]cyclohexyl]methyl]pyrrolo[3,2-b]pyridine-6-carbonitrile]	25
30	N#Cc1cnc2cnn(C[C@H]3CC[C@H](C(=O)N4OCC[C@H]4c4cnccn4)CC3)c2c1 [compound 137, trans-1-[[4-[(3S)-3-pyrazin-2-ylisoxazolidine-2-carbonyl]cyclohexyl]methyl]pyrazolo[4,3-b]pyridine-6-carbonitrile]	46
13	N#Cc1cncc(C[C@H]2CC[C@H](C(=O)N3OCC[C@H]3c3cc(F)cc(C#N)c3)CC2)c1 [compound 141, trans-5-[[4-[(3S)-3-(3-cyano-5-fluoro-phenyl)isoxazolidine-2-carbonyl]cyclohexyl]methyl]pyridine-3-carbonitrile]	17
